Laboratory results reported in EP0640747B1, “Boiler system pH/phosphate program control method” (NALCO CHEMICAL COMPANY, priority 1993, dated 1995).

Assay: thermal stability of inert fluorescent tracers under boiler conditions
Type: physicochemical
Conditions: for thermally stable (substantially inert) for time: at 285 °C (545 °F); for thermally stable (substantially inert) at pressures up to: for time periods commensurate with commercial boiler holding times; for thermally stable (substantially inert) at temperatures up to: temperature limit, also printed as 1004 °F
Source text: Among the substantially boiler-system-inert fluorescent compounds are the mono-, di- and trisulfonated naphthalenes, including their water-soluble salts, particularly the various naphthalene mono- and disulfonic acid isomers, which are a preferred inert tracer(s) for use in the present invention. The naphthalene mono- and disulfonic acid isomers are water-soluble, generally available commercially and easily detectable and quantifiable by known fluorescence analysis techniques. Preferred naphthalene mono- and disulfonic acid isomers are the water-soluble salts of naphthalene sulfonic acid ("NSA"), such as 2-NSA, and naphthalene disulfonic acid ("NDSA" or "NDA"), for instance 1,5-NDSA. Many of these inert tracer(s) (mono-, di- and trisulfonated naphthalenes and mixtures thereof) are extremely compatible with the environments of most boiler systems.

| SMILES | thermally stable (substantially inert) for time | thermally stable (substantially inert) at pressures up to | thermally stable (substantially inert) at temperatures up to |
| --- | --- | --- | --- |
| O=S(=O)(O)c1cccc2c(S(=O)(=O)O)cccc12 [1,5-NDSA, 1,5-naphthalene disulfonic acid] | at least 24 hours | about 1,500 psig | at least 540 °C |
| O=S(=O)(O)c1ccc2ccccc2c1 [2-NSA, 2-naphthalene sulfonic acid] | at least 24 hours | about 1,500 psig | at least 540 °C |
